Here are results for two compounds from patent US20240115622A1, “FORMULATION FOR THE PREVENTION AND/OR TREATMENT OF COVID-19” (priority 2022, published 2024).

In data set [1] the test system is VERO E6 cells.
Data set [2] concerns human respiratory coronavirus OC43. In words: HCT-8 cells infected with human respiratory coronavirus OC43, antiviral effect (CPE, WST-1). In kind it is cell-based. A general note: Tetrazolium assays rely on reduction of a dye to a coloured formazan, in cell work by metabolically active cells.
Data set [3] has as its system VERO E6 cells. The data set can be described thus: cytotoxicity of the compounds on Vero E6 cells.
The test system of a further data set is porcine coronavirus PEDV. In words: PEDV infection of Vero E6 cells, antiviral activity by CPE.

Like-named read-outs stand apart in the source and are kept apart here.

As to propolis, in the data set with VERO E6 cells [1], the cytotoxicity entry is “very high” and the “cytotoxicity, effect of low concentration of FBS” value is given as “significantly decreased”.

Consider `OC[C@@H](O)[C@H](O)[C@@H](O)CO` [xylitol], for which the “time for which a significant effect was sustained” value in data set [2] (after 2 hours of treatment exposure) was found to be 4 days. Further, in data set [2] (overall conclusion of the coronavirus experiments), the “concentration with optimal effect in protecting cells from coronaviral infection” value was found to be 0.5%. Further, in the data set with VERO E6 cells [3] (medium supplemented with 2% FBS), the “cytotoxicity, effect of low concentration of FBS” value was “significantly decreased”. In the data set on VERO E6 cells [3] (medium without FBS), the cytotoxicity result is given as “very high”. Further, in the data set on porcine coronavirus PEDV (FIG. 1, 3 days post infection, PEDV-infected Vero E6 cells, low concentrations), the “visual scores of the CPE, effect against PEDV infection” value was “protective effects”. In addition, the “low concentration with protective effect against PEDV infection (below the cytotoxic concentrations)” value with porcine coronavirus PEDV (Vero E6 cells, medium with 2% FBS, speculated, to be better sustained) is not above 3%. Also, the PEDV induced cytotoxicity result in the data set on porcine coronavirus PEDV (medium without FBS, high concentrations of the compound) was “higher”.
